Counter-ions that a name gives are not always drawn. Like-named read-outs stand apart in the source and are kept apart here.
Experiments:
[1] = tested on: Arachidonic Acid-Induced Sudden Death; test: Effect on Arachidonic Acid-Induced Sudden Death in Rabbit; assay type: in vivo, male rabbits; details: for % Protection / Ratio of Mortality/Total Number: 20 mg/kg i.p. 2 hours before 1.4 mg/kg sodium arachidonate (ear vein); for % Protection: 30 minutes; for Ratio of Mortality/Total Number: mortality at 30 minutes; for protection against the arachidonic acid-induced sudden death in rabbits (in words): conclusion in words
Excerpt: The compounds of the present invention having the formula (I) and the pharmaceutically acceptable salts thereof thus obtained have a strong inhibitory activity on thromboxane A2 synthetase. A typical in vivo test method for evaluating compounds which may be useful as a so-called anti-thrombotic agent has been reported in literature and this method comprises determining the prevention of sudden death of rabbits caused by arachidonic acid, as reported in, for example, Agents and Actions, 7, 481 (1977); Pharmacology, 14, 522 (1976); Science, 183, 1085 (1974), etc.
More specifically, sodium arachidonate is administered intravenously to rabbits at a dose of about 1.4 mg/kg to cause a sudden death within a few minutes due to platelet aggregation and lung embolus.
According to the method of Silver et al [Science, 183, 1085 (1974)], 20 mg/kg of the test compound was administered intraperitoneally into male rabbits (8 or 10 rabbits per group), each weighing 2.2 to 2.8 kg, and 2 hours after the administration 1.4 mg/kg of sodium arachidonate was administered to the rabbit from an ear vein. The mortality of the rabbits was then calculated 30 minutes after the administration of sodium arachidonate.

[2] = tested on: platelet aggregation (collagen), rabbit platelet-rich plasma; test: Inhibition of Platelet Aggregation induced by collagen; assay type: cell-based; details: for IC50: Oryctolagus cuniculus, Platelet, rabbit PRP, collagen 10 ug/ml, 37° C.; for inhibitory activity on platelet aggregation induced by collagen (in words): conclusion in words
Procedure: (§1) Rabbit platelet-rich plasma was pre-incubated at 37° C. for 1 minute and, after adding the test compound, arachidonic acid or collagen was added thereto at a concentration of 100 ug/ml or 10 ug/ml, respectively. The aggregation of platelets was recorded using an aggregometer and shown in Table 2 in terms of IC50 value.

[3] = tested on: thromboxane A2 synthesis (thromboxane A2 synthetase); test: Inhibition of Thromboxane A2 Synthesis (collagen-stimulated rabbit platelet-rich plasma, thromboxane B2 by radioimmunoassay); assay type: cell-based; details: Oryctolagus cuniculus, 5 min, read-out: IC50 on Thromboxane A2 Synthesis
Procedure: Rabbit platelet-rich plasma (PRP, 6×10^8 platelets/ml) and the test compound was pre-incubated at 37° C. for 5 minutes and, after adding collagen to the mixture at a concentration of 13 ug/ml, the resulting mixture was incubated at 37° C. for 5 minutes. Then, the reaction was terminated by rendering the mixture […] with hydrochloric acid and the amount of thromboxane B2 produced was quantitatively determined by the radioimmunoassay.

[4] = tested on: platelet aggregation (arachidonic acid), rabbit platelet-rich plasma; test: Inhibition of Platelet Aggregation induced by arachidonic acid; assay type: cell-based; details: for IC50: Oryctolagus cuniculus, Platelet, rabbit PRP, arachidonic acid 100 ug/ml, 37° C.; for inhibitory activity on platelet aggregation induced by arachidonic acid (in words): conclusion in words
Procedure: as §1

Acute Toxicity = assay type: in vivo; details: mouse, in vivo, ip; ddY male mice; i.p.; mortality one week after administration; Behrens-Karber method
Procedure: (§2) The test compound was administered intraperitoneally to ddY male mice weighing 22 to 24 g and LD50 was determined by the Behrens-Karber method [Arch. exp. Path. Pharmak., 177, 379 (1935)] from the mortality one week after administration.

ddY male mice = test: Acute Toxicity; assay type: in vivo; details: i.p., mortality one week after administration, Behrens-Karber method, 10080 min
Procedure: as §2

[5] = rabbit PRP, 6×10^8 platelets/ml, collagen 13 ug/ml, 37° C., 5 minutes

Structure (SMILES) | % Protection [1] | Ratio of Mortality/Total Number [1] | protection against the arachidonic acid-induced sudden death in rabbits (in words) [1] | IC50 [2] | IC50 [3, 5] | IC50 [4] | LD50 at 168 h (Acute Toxicity) | LD50 (ddY male mice) | inhibitory activity on platelet aggregation induced by collagen (in words) [2] | IC50 [3] | inhibitory activity on platelet aggregation induced by arachidonic acid (in words) [4]
CC(=Cc1ccc(Oc2cccnc2)cc1)C(=O)NC1CCCCC1.Cl [Compound E, N-Cyclohexyl-2-methyl-3-[4-(3-pyridyloxy)phenyl]propenamide hydrochloride] | 75% | 2/8 | strong protection | 47 µM | 5.9 µM | 31 µM | 210 mg/kg |  |  |  | 
CC(=Cc1ccc(Oc2cccnc2)cc1)C(=O)O.Cl [Compound D, 2-Methyl-3-[4-(3-pyridyloxy)phenyl]propenoic acid hydrochloride] | 100% | 0/10 | strong protection | 36 µM | 1 µM |  | 350 mg/kg |  |  |  | 
CCCCCCCCCn1ccnc1 [Compound A, Nonylimidazole, reference compound] | 50% | 5/10 |  |  |  |  |  | 59 mg/kg |  |  | 
CC(=Cc1ccc(Oc2cccnc2)cc1)C(N)=O.Cl [Compound G, 2-Methyl-3-[4-(3-pyridyloxy)phenyl]propenamide hydrochloride] |  |  |  | 56 µM | 0.56 µM | 335 µM | 310 mg/kg |  |  |  | 
Cl.O=C(O)c1ccc(OCCn2ccnc2)cc1 [Compound B, 4-(2-Imidazol-1-ylethoxy)benzoic acid hydrochloride, reference compound] |  |  |  | 400 µM |  | > 1000 µM |  |  | very weak inhibitory activity | 5.7 µM | very weak inhibitory activity
CC(=Cc1ccc(Cc2cccnc2)cc1)C(=O)O.Cl [Compound C, 2-Methyl-3-[4-(3-pyridylmethyl)phenyl]propenoic acid hydrochloride, reference compound] |  |  |  | 420 µM | 0.22 µM | > 1000 µM | 220 mg/kg |  | very weak inhibitory activity |  | very weak inhibitory activity
CC(=Cc1ccc(Sc2ccncc2)cc1)C(=O)O [Compound F, 2-Methyl-3-[4-(4-pyridylthio)phenyl]propenoic acid hydrochloride] |  |  |  | 22 µM | 0.31 µM |  |  |  |  |  | 

From patent US4496735A, “Certain pyridyloxy-or-thio-phenyl propenoic acid derivatives” (Maruko Seiyaku Co., Ltd., priority 1982, dated 1985)
